Measured values from US11787764B2, “Heptamethine cyanines for use as fluorescent markers of the biliary and renal systems” (CHILDREN'S NATIONAL MEDICAL CENTER, priority 2018, dated 2023).

Experiments:
Sprague-Dawley rats = details: rat, in vivo, iv, 90 ug/kg
[1] = Quantum yield measurement
Method: Fluorescence traces were recorded on a PTI QuantaMaster steady-state spectrofluorimeter operated by FelixGX 4.2.2 software, with 5 nm excitation and emission slit widths, 0.1 s integration rate, and enabled emission correction.

SMILES	excretion into bile / biliary clearance (in words) (Sprague-Dawley rats)	quantum yield [1] [%]
CN(CCOC1=C(/C=C/C2=[N+](CCCCS(=O)(=O)[O-])c3ccccc3C2(C)C)CCC/C1=C\C=C1\N(CCCCS(=O)(=O)O)c2ccccc2C1(C)C)C(=O)CCCC(=O)O [FNIR-Ar-H_N-BS]	excellent biliary clearance	
CC1(C)C(/C=C/C=C/C=C/C=C2\N(CCCCS(=O)(=O)O)c3ccc4ccccc4c3C2(C)C)=[N+](CCCCS(=O)(=O)[O-])c2ccc3ccccc3c21 [ICG, indocyanine green]		9
CC1(C)C(=CC=C2CCCC(C=CC3=[N+](CCCCCC(=O)[O-])c4ccc(S(=O)(=O)[O-])cc4C3(C)C)=C2Oc2ccc(S(=O)(=O)[O-])cc2)N(CCCCS(=O)(=O)[O-])c2ccc(S(=O)(=O)[O-])cc21.[Na+].[Na+].[Na+].[Na+] [IRDye® 800CW]	excretes rapidly into bile	
